Measurements: ChEMBL document CHEMBL1221210, “A Cdc7 kinase inhibitor restricts initiation of DNA replication and has antitumor activity” (Nat Chem Biol, 2008)

Tests used:
HeLa [1] = assay: Inhibition of DNA replication in human HeLa cells assessed as interorigin distance between homogenous DNA fibers at 2 uM after 2 hrs by immunofluorescence assay; format: functional
HeLa [2] = assay: Inhibition of DNA replication in human HeLa cells assessed as increase in replication fork speed per min at 2 uM after 6 hrs by immunofluorescence assay; format: functional
HeLa [3] = assay: Inhibition of DNA replication in human HeLa cells assessed as increase in replication fork speed per min at 5 uM after 6 hrs by immunofluorescence assay; format: functional
HeLa [4] = assay: Inhibition of DNA replication in human HeLa cells assessed as increase in replication fork speed per min at 20 uM after 4 hrs by immunofluorescence assay; format: functional
NHDF [5] = assay: Induction of cell cycle arrest in NHDF expressing p53 gene assessed as accumulation at subG1 phase at 0.1 uM after 24hrs by FACS analysis; format: cell-based; settings: human
HeLa [6] = assay: Inhibition of DNA synthesis in human HeLa cells assessed as Brd-U uptake at 5 uM after 6 hrs by FACS analysis; format: functional; set-up: scale not given: the % may be the effect or the level left
HeLa [7] = assay: Inhibition of DNA synthesis in human HeLa cells assessed as Brd-U uptake at 5 uM after 9 hrs by FACS analysis; format: functional; set-up: scale not given: the % may be the effect or the level left
NHDF [8] = assay: Induction of cell cycle arrest in NHDF assessed as accumulation at subG1 phase at 5 uM after 24hrs by propidium-iodine staining based FACS analysis; settings: human
NHDF [9] = assay: Induction of cell cycle arrest in thymidine deficient NHDF assessed as DNA synthesis in S-phase at 5 uM after 16hrs FACS analysis in presence of serum; format: cell-based; settings: human
[10] = target: Serine/threonine-protein kinase NIM1 (Homo sapiens, UniProt Q8IY84); assay: Inhibition of NIM1
Serine/threonine-protein kinase NIM1, sequence (Q8IY84 whole entry): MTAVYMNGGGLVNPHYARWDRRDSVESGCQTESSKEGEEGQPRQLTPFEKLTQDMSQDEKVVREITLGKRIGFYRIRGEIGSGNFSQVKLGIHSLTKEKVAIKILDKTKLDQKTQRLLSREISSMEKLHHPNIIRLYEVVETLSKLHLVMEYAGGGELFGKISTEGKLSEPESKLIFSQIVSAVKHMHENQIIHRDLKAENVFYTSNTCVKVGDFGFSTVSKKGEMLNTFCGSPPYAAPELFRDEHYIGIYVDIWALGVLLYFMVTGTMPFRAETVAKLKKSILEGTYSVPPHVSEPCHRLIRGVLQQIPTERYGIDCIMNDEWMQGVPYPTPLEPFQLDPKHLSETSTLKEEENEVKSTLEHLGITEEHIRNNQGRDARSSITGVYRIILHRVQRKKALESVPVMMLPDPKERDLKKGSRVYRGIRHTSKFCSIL

[11] = target: Tyrosine-protein kinase ZAP-70 (Homo sapiens, UniProt P43403); assay: Inhibition of ZAP70
Tyrosine-protein kinase ZAP-70, sequence (P43403 whole entry): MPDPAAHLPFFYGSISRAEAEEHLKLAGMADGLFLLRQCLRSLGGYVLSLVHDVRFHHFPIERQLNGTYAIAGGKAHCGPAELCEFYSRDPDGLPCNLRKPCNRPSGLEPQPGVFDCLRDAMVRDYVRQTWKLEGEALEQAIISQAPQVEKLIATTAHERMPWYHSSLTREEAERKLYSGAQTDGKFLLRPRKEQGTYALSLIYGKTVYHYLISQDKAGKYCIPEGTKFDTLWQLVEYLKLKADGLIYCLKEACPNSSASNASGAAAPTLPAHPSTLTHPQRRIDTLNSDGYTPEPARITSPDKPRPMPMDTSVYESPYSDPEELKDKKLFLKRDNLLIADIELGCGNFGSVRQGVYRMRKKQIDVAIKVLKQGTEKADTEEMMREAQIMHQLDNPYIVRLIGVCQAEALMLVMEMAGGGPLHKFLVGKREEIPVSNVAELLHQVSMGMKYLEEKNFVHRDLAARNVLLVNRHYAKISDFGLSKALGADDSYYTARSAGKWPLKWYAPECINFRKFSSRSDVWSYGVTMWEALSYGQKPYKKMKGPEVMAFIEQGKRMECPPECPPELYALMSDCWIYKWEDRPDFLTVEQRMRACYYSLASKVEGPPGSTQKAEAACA

[12] = Antiproliferative activity against p53 deficient human HCT116/E6 cells after 72 hrs by proliferative assay; format: functional, cell-based; settings: HCT116-E6, 72 h
[13] = Antiproliferative activity against p53 deficient human A2780/E6 cells after 72 hrs by proliferative assay; format: functional, cell-based; settings: A2780/E6, 72 h
HCT-15 [14] = assay: Antiproliferative activity against human HCT15 cells expressing p53 gene after 72 hrs by proliferative assay; format: functional, cell-based; settings: HCT-15, 72 h
U2OS [15] = assay: Antiproliferative activity against human U2OS cells expressing p53 gene after 72 hrs by proliferative assay; format: functional, cell-based
SW480 [16] = assay: Induction of cell cycle arrest in p53 deficient human SW480 cells assessed as accumulation at subG1 phase at 5 uM after 24hrs by FACS analysis; format: functional
COLO 205 = assay: Induction of cell cycle arrest in p53 deficient human COLO205 cells assessed as accumulation at subG1 phase at 5 uM after 24hrs by FACS analysis; format: functional
[17] = Induction of cell cycle arrest in p53 deficient human HCT116-E6 cells assessed as accumulation at subG1 phase at 5 uM after 24hrs by FACS analysis; format: functional
HCT-116 [18] = assay: Induction of cell cycle arrest in human HCT116 cells expressing p53 gene assessed as accumulation at subG1 phase at 5 uM after 24hrs by FACS analysis; format: functional
PC-3 [19] = assay: Induction of cell cycle arrest in human PC3 cells expressing p53 gene assessed as accumulation at subG1 phase at 5 uM after 24hrs by FACS analysis; format: functional
SW480 [20] = assay: Induction of cell cycle arrest in p53 deficient human SW480 cells assessed as accumulation at subG1 phase at 10 uM after 24hrs by FACS analysis; format: functional
Jurkat = assay: Induction of cell cycle arrest in p53 deficient human Jurkat cells assessed as accumulation at subG1 phase at 10 uM after 24hrs by FACS analysis; format: functional
OVCAR-8 = assay: Induction of cell cycle arrest in p53 deficient human OVCAR8 cells assessed as accumulation at subG1 phase at 10 uM after 24 hrs by FACS analysis; format: functional
MCF7 [21] = assay: Induction of cell cycle arrest in human MCF7 cells expressing p53 gene assessed as accumulation at subG1 phase at 10 uM after 24hrs by FACS analysis; format: functional
HCT-116 [22] = assay: Induction of cell cycle arrest in human HCT116 cells expressing p53 gene assessed as accumulation at subG1 phase at 10 uM after 24 hrs by FACS analysis; format: functional
SF-539 [23] = assay: Induction of cell cycle arrest in human SF539 cells expressing p53 gene assessed as accumulation at subG1 phase at 10 uM after 24 hrs by FACS analysis; format: functional
A2780 = assay: Induction of cell cycle arrest in human A2780 cells expressing p53 gene assessed as accumulation at subG1 phase at 10 uM after 24 hrs by FACS analysis; format: functional
[24] = Induction of cell cycle arrest in p53 deficient human A2780/E6 cells assessed as residual DNA synthesis at 5 uM after 24 hrs by FACS analysis; format: functional
SF-539 [25] = assay: Induction of cell cycle arrest in human SF539 cells expressing p53 gene assessed as residual DNA synthesis at 5 uM after 24 hrs by FACS analysis; format: functional
PC-3 [26] = assay: Induction of cell cycle arrest in human PC3 cells expressing p53 gene assessed as residual DNA synthesis at 5 uM after 24 hrs by FACS analysis; format: functional
SF-268 = assay: Induction of cell cycle arrest in p53 deficient human SF268 cells assessed as residual DNA synthesis at 10 uM after 24 hrs by FACS analysis; format: functional
K562 = assay: Induction of cell cycle arrest in p53 deficient human K562 cells assessed as residual DNA synthesis at 10 uM after 24 hrs by FACS analysis; format: functional
SW480 [27] = assay: Induction of cell cycle arrest in p53 deficient human SW480 cells assessed as residual DNA synthesis at 10 uM after 24 hrs by FACS analysis; format: functional
MCF7 [28] = assay: Induction of cell cycle arrest in human MCF7 cells expressing p53 gene assessed as residual DNA synthesis at 10 uM after 24 hrs by FACS analysis; format: functional
HCT-116 [29] = assay: Induction of cell cycle arrest in human HCT116 cells expressing p53 gene assessed as residual DNA synthesis at 10 uM after 24 hrs by FACS analysis; format: functional
HCT-15 [30] = assay: Induction of cell cycle arrest in human HCT15 cells expressing p53 gene assessed as residual DNA synthesis at 10 uM after 24 hrs by FACS analysis; format: functional
U2OS [31] = assay: Induction of cell cycle arrest in human U2OS cells expressing p53 gene assessed as residual DNA synthesis at 10 uM after 24 hrs by FACS analysis; format: functional
PC-3 [32] = assay: Induction of cell cycle arrest in human PC3 cells expressing p53 gene assessed as residual DNA synthesis at 10 uM after 24 hrs by FACS analysis; format: functional

Work on `O=C1NCCc2[nH]c(-c3ccncc3)cc21` yielded an Activity (HeLa [1]) of 225 kilobase, an Activity (HeLa [2]) of 1.81 kilobase and an Activity (HeLa [3]) of 2.14 kilobase. For the same compound, the Activity (HeLa [4]) was 2.32 kilobase, the Activity (NHDF [5]) was “Active” and the Activity (HeLa [6]) was 26%. The Activity (HeLa [7]) was 9%, the Activity (NHDF [8]) was 1.6% and the Activity (NHDF [9]) was “Active”. For the same compound, the IC50 [10] was over 10 µM, the IC50 [11] was over 10 µM and the IC50 [12] was 1.48 µM. For the same compound, the IC50 [13] was 1.5 µM, the IC50 (HCT-15 [14]) was 3.81 µM and the IC50 (U2OS [15]) was 1.49 µM. For the same compound, the Activity (SW480 [16]) was over 20%, the Activity (COLO 205) was 10% and the Activity [17] was 3%. It also gave an Activity (HCT-116 [18]) of 3%, an Activity (PC-3 [19]) of 3% and an Activity (SW480 [20]) of over 20%. For the same compound, the Activity (Jurkat) was over 20%, the Activity (OVCAR-8) was 3% and the Activity (MCF7 [21]) was under 3%. For the same compound, the Activity (HCT-116 [22]) was 3%, the Activity (SF-539 [23]) was 3% and the Activity (A2780) was over 20%. The Activity [24] was under 3%, the Activity (SF-539 [25]) was 3% and the Activity (PC-3 [26]) was 3%. For the same compound, the Activity (SF-268) was under 3%, the Activity (K562) was 10% and the Activity (SW480 [27]) was under 3%. It also gave an Activity (MCF7 [28]) of under 3%, an Activity (HCT-116 [29]) of under 3% and an Activity (HCT-15 [30]) of under 3%. It also gave an Activity (U2OS [31]) of under 3% and an Activity (PC-3 [32]) of under 3%.
